Source: patent publication US20060069132A1, “Azolecarboxamide herbicides” (priority 2004, published 2006)

Legend:
[1] = tested on: rice; experiment: Test B flooded paddy test; format: in vivo, Oryza sativa; conditions: 1000 g ai/ha, visual rating, scale 0 to 100 (0 no effect, 100 complete control), 13 to 15 days
Method in brief: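 Scale 0–100: zero equals no visible effect, 100 complete control, judged by eye relative to controls. Timing: 13 to 15 days in greenhouse post-treatment. Growth stage at spraying: two leaves (paddy) or one to four leaves, 2–18 cm (postemergence).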

[2] = tested on: large crabgrass; experiment: Test B pre-/postemergence herbicide test; format: in vivo, Digitaria sanguinalis; conditions: for Crabgrass, Large plant response rating: postemergence, visual rating, scale 0 (no effect) to 100 (complete control)
Method in brief: (§1)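 Formulation: non-phytotoxic solvent mix with surfactant. Timing: preemergence on seed and postemergence on 2–18 cm plants, applied concurrently. Readout after 13–15 d greenhouse: visual 0–100 control rating against controls.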

[3] = tested on: wild oat; experiment: Test B postemergence herbicide test; format: in vivo, Avena fatua; conditions: postemergence, visual rating, scale 0 (no effect) to 100 (complete control)
Method in brief: (§2)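 Plants grow to 1- to 4-leaf stage (2–18 cm) for postemergence spraying, or to 2-leaf stage for the paddy test. Formulated compound is applied. Greenhouse holding lasts 13–15 days. Response is scored visually relative to controls, 0 no effect to 100 complete control; a dash means no result.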

[4] = tested on: small flower umbrella sedge; experiment: Test B flooded paddy test; format: in vivo, Cyperus difformis; conditions: 1000 g ai/ha, visual rating, scale 0 to 100 (0 no effect, 100 complete control), 13 to 15 days
Method in brief: (§3)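 Visual ratings, 0 (no effect) to 100 (complete control), made versus controls after 13–15 d greenhouse. Paddy plants treated at 2-leaf stage; postemergence plants at 1- to 4-leaf stage, 2–18 cm tall.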

[5] = tested on: morningglory; experiment: Test B pre-/postemergence herbicide test; format: in vivo, Ipomoea coccinea; conditions: for Morningglory plant response rating: postemergence, visual rating, scale 0 (no effect) to 100 (complete control)
Method in brief: (§4)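 Visual rating, 0 (no effect) to 100 (complete control), versus untreated controls after 13–15 d in greenhouse. Pre- and postemergence applications (postemergence plants 2–18 cm, 1–4 leaves); flooded paddy arm at 2-leaf stage. Compounds in non-phytotoxic solvent plus surfactant.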

[6] = tested on: rice; experiment: Test B pre-/postemergence herbicide test; format: in vivo, Oryza sativa; conditions: preemergence
Method in brief: as §1

[7] = tested on: lambsquarters; experiment: Test B pre-/postemergence herbicide test; format: in vivo, Chenopodium album; conditions: for Lambsquarters plant response rating: postemergence, visual rating, scale 0 (no effect) to 100 (complete control)
Method in brief: as §1

[8] = tested on: giant foxtail; experiment: Test B pre-/postemergence herbicide test; format: in vivo, Setaria faberi; conditions: for Foxtail, Giant plant response rating: postemergence, visual rating, scale 0 (no effect) to 100 (complete control)
Method in brief: as §1

[9] = tested on: velvetleaf; experiment: Test B pre-/postemergence herbicide test; format: in vivo, Abutilon theophrasti; conditions: for Velvetleaf plant response rating: postemergence, visual rating, scale 0 (no effect) to 100 (complete control)
Method in brief: as §1

[10] = tested on: barnyardgrass; experiment: Test B pre-/postemergence herbicide test; format: in vivo, Echinochloa crus-galli; conditions: for Barnyardgrass plant response rating: postemergence, visual rating, scale 0 (no effect) to 100 (complete control)
Method in brief: as §4

[11] = tested on: blackgrass; experiment: Test B postemergence herbicide test; format: in vivo, Alopecurus myosuroides; conditions: postemergence, visual rating, scale 0 (no effect) to 100 (complete control)
Method in brief: as §3

[12] = tested on: barnyardgrass; experiment: Test B flooded paddy test; format: in vivo, Echinochloa crus-galli; conditions: 1000 g ai/ha, visual rating, scale 0 to 100 (0 no effect, 100 complete control), 13 to 15 days
Method in brief: as §3

[13] = tested on: cocklebur; experiment: Test B pre-/postemergence herbicide test; format: in vivo, Xanthium strumarium; conditions: for Cocklebur plant response rating: postemergence, visual rating, scale 0 (no effect) to 100 (complete control)
Method in brief: as §4

[14] = tested on: wheat; experiment: Test B postemergence herbicide test; format: in vivo, Triticum aestivum; set-up: key to Wheat plant response rating: 0 = no effect, 100 = complete control; conditions: postemergence, visual rating, scale 0 (no effect) to 100 (complete control)
Method in brief: as §2

[15] = tested on: Surinam grass; experiment: Test B pre-/postemergence herbicide test; format: in vivo, Urochloa decumbens; conditions: for Surinam Grass plant response rating: postemergence, visual rating, scale 0 (no effect) to 100 (complete control)
Method in brief: as §1

[16] = tested on: ducksalad; experiment: Test B flooded paddy test; format: in vivo, Heteranthera limosa; conditions: 1000 g ai/ha, visual rating, scale 0 to 100 (0 no effect, 100 complete control), 13 to 15 days
Method in brief: as §3

[17] = tested on: pigweed; experiment: Test B pre-/postemergence herbicide test; format: in vivo, Amaranthus retroflexus; conditions: for Pigweed plant response rating: postemergence, visual rating, scale 0 (no effect) to 100 (complete control)
Method in brief: as §1

[18] = tested on: corn; experiment: Test B pre-/postemergence herbicide test; format: in vivo, Zea mays; conditions: for Corn plant response rating: postemergence, visual rating, scale 0 (no effect) to 100 (complete control)
Method in brief: as §1

[19] = 125 g ai/ha, 0 = no effect, 100 = complete control, preemergence
[20] = 500 g ai/ha, visual rating 0-100, 0 no effect, 100 complete control, preemergence
[21] = 500 g ai/ha, visual rating 0-100, 0 no effect, 100 complete control
[22] = preemergence, 125 g ai/ha, 0 to 100 scale, 0 is no effect, 100 is complete control

CCNC(=O)c1cccc(NC(=O)c2nn(C(C)(C)C)cc2C(F)(F)F)c1 [Compound 170]
Rice plant response rating [1]: 20 | Crabgrass, Large plant response rating (0 to 100 scale) [2, 19]: 20 | Plant response rating, Crabgrass, Large [2, 20]: 80 | Crabgrass, Large plant response rating ([2]; 125 g ai/ha): 10 | Crabgrass, Large plant response rating ([2]; 500 g ai/ha): 10 | Oat, Wild plant response rating ([3]; 125 g ai/ha): 10 | Oat, Wild plant response rating ([3]; 500 g ai/ha): 10 | Sedge, Umbrella plant response rating [4]: 20 | Morningglory plant response rating (0 to 100 scale) [5, 19]: 0 | Plant response rating, Morningglory [5, 20]: 10 | Morningglory plant response rating ([5]; 125 g ai/ha): 30 | Morningglory plant response rating ([5]; 500 g ai/ha): 80 | Rice plant response rating (0 to 100 scale) ([6]; 125 g ai/ha, 0 = no effect, 100 = complete control): 0 | Plant response rating, Rice [6, 21]: 0 | Lambsquarters plant response rating (0 to 100 scale) [7, 19]: 0 | Plant response rating, Lambsquarters [7, 20]: 80 | Lambsquarters plant response rating ([7]; 125 g ai/ha): 60 | Lambsquarters plant response rating ([7]; 500 g ai/ha): 70 | Foxtail, Giant plant response rating (0 to 100 scale) [8, 19]: 0 | Plant response rating, Foxtail, Giant [8, 20]: 20 | Foxtail, Giant plant response rating ([8]; 125 g ai/ha): 0 | Foxtail, Giant plant response rating ([8]; 500 g ai/ha): 10 | Velvetleaf plant response rating (0 to 100 scale) [9, 19]: 0 | Plant response rating, Velvetleaf [9, 20]: 20 | Velvetleaf plant response rating ([9]; 125 g ai/ha): 10 | Velvetleaf plant response rating ([9]; 500 g ai/ha): 20 | Barnyardgrass plant response rating (0 to 100 scale) [10, 19]: 0 | Plant response rating, Barnyardgrass [10, 20]: 30 | Barnyardgrass plant response rating ([10]; 125 g ai/ha): 0 | Barnyardgrass plant response rating ([10]; 500 g ai/ha): 10 | Blackgrass plant response rating ([11]; 125 g ai/ha): 0 | Blackgrass plant response rating ([11]; 500 g ai/ha): 0 | Barnyardgrass plant response rating [12]: 10 | Cocklebur plant response rating (0 to 100 scale) [13, 19]: 0 | Plant response rating, Cocklebur [13, 20]: 0 | Cocklebur plant response rating ([13]; 125 g ai/ha): 0 | Cocklebur plant response rating ([13]; 500 g ai/ha): 0 | Wheat plant response rating ([14]; 125 g ai/ha): 0 | Wheat plant response rating ([14]; 500 g ai/ha): 0 | Surinam Grass plant response rating (0 to 100 scale) [15, 19]: 0 | Plant response rating, Surinam Grass [15, 20]: 30 | Surinam Grass plant response rating ([15]; 125 g ai/ha): 10 | Surinam Grass plant response rating ([15]; 500 g ai/ha): 10 | Ducksalad plant response rating [16]: 0 | Pigweed plant response rating (0 to 100 scale) [17, 19]: 0 | Plant response rating, Pigweed [17, 20]: 90 | Pigweed plant response rating ([17]; 125 g ai/ha): 30 | Pigweed plant response rating ([17]; 500 g ai/ha): 50 | Corn plant response rating (0 to 100 scale) [18, 19]: 0 | Plant response rating, Corn [18, 20]: 0 | Corn plant response rating ([18]; 125 g ai/ha): 0 | Corn plant response rating ([18]; 500 g ai/ha): 10

CCOC(=O)c1ccnc(NC(=O)c2cc(C(C)(C)C)nn2CC)c1 [Compound 157]
Rice plant response rating [1]: 30 | Plant response rating, Crabgrass, Large [2, 20]: 20 | Crabgrass, Large plant response rating ([2]; 125 g ai/ha): 0 | Crabgrass, Large plant response rating ([2]; 500 g ai/ha): 20 | Plant response rating, Crabgrass, Large [2, 22]: 0 | Oat, Wild plant response rating ([3]; 125 g ai/ha): 10 | Oat, Wild plant response rating ([3]; 500 g ai/ha): 40 | Sedge, Umbrella plant response rating [4]: 40 | Plant response rating, Morningglory [5, 20]: 40 | Morningglory plant response rating ([5]; 125 g ai/ha): 0 | Morningglory plant response rating ([5]; 500 g ai/ha): 30 | Plant response rating, Morningglory [5, 22]: 0 | Plant response rating, Rice [6, 21]: 0 | Plant response rating, Rice ([6]; 125 g ai/ha, 0 to 100 scale, 0 is no effect, 100 is complete control): 0 | Plant response rating, Lambsquarters [7, 20]: 30 | Lambsquarters plant response rating ([7]; 125 g ai/ha): 20 | Lambsquarters plant response rating ([7]; 500 g ai/ha): 70 | Plant response rating, Lambsquarters [7, 22]: 0 | Plant response rating, Foxtail, Giant [8, 20]: 0 | Foxtail, Giant plant response rating ([8]; 125 g ai/ha): 30 | Foxtail, Giant plant response rating ([8]; 500 g ai/ha): 40 | Plant response rating, Foxtail, Giant [8, 22]: 0 | Plant response rating, Velvetleaf [9, 20]: 0 | Velvetleaf plant response rating ([9]; 125 g ai/ha): 50 | Velvetleaf plant response rating ([9]; 500 g ai/ha): 80 | Plant response rating, Velvetleaf [9, 22]: 0 | Plant response rating, Barnyardgrass [10, 20]: 0 | Barnyardgrass plant response rating ([10]; 125 g ai/ha): 0 | Barnyardgrass plant response rating ([10]; 500 g ai/ha): 20 | Plant response rating, Barnyardgrass [10, 22]: 0 | Blackgrass plant response rating ([11]; 125 g ai/ha): 10 | Blackgrass plant response rating ([11]; 500 g ai/ha): 20 | Barnyardgrass plant response rating [12]: 20 | Plant response rating, Cocklebur [13, 20]: 20 | Cocklebur plant response rating ([13]; 125 g ai/ha): 10 | Cocklebur plant response rating ([13]; 500 g ai/ha): 90 | Plant response rating, Cocklebur [13, 22]: 0 | Wheat plant response rating ([14]; 500 g ai/ha): 20 | Plant response rating, Surinam Grass [15, 20]: 0 | Surinam Grass plant response rating ([15]; 125 g ai/ha): 20 | Surinam Grass plant response rating ([15]; 500 g ai/ha): 20 | Plant response rating, Surinam Grass [15, 22]: 0 | Ducksalad plant response rating [16]: 0 | Plant response rating, Pigweed [17, 20]: 40 | Pigweed plant response rating ([17]; 125 g ai/ha): 40 | Pigweed plant response rating ([17]; 500 g ai/ha): 80 | Plant response rating, Pigweed [17, 22]: 0 | Plant response rating, Corn [18, 20]: 0 | Corn plant response rating ([18]; 125 g ai/ha): 0 | Corn plant response rating ([18]; 500 g ai/ha): 0 | Plant response rating, Corn [18, 22]: 0
